Consider four compounds from article PMC9810167, “Novel dual LSD1/HDAC6 inhibitor for the treatment of cancer” (PLOS ONE, 2023).

Series [1] relates to MM1.S xenograft. The series can be described thus: MM1.S multiple myeloma xenograft model. The format is in vivo.
Series [2] relates to HEL 92.1.7. Kind of series: Cell proliferation assay (Alamar Blue). Particulars: for EC50: Homo sapiens. The class given is cell-based, human. How it is done:
Cells were seeded in NUNC 96-well tissue culture plates (Life Technologies) in […] culture medium and incubated at 37°C/ 5% CO2 to adhere to plastic for 18–24 h. […] One set of plates (designated for the 144 h read out) were centrifuged at low speed for 30 seconds, and respective compounds were replenished in fresh media and incubated for another 68–72 h at 37°C/ 5% CO2. […] The inhibition curve was then fitted by plotting % inhibition against log concentration in GraphPad Prism 5.0 (GraphPad Software, Inc.) and the GI50 value of compound was determined. Data are representative of at least two independent experiments.
In general terms: Resazurin is reduced to fluorescent resorufin, in cell work by metabolically active cells.

In series [3] the test system is class I HDACs. Also on record: method as in PMID 22262760. Particulars: read-out: potency on class I HDACs; cited from earlier work.

Where two headings read alike, the source gives them in different places.

Regarding `CC(C)C[C@H](NC(=O)[C@H](Cc1ccccc1)NC(=O)c1cnccn1)B(O)O` [Bortezomib, reference compound], the mortality in series [1] (Bortezomib 0.5 mg/kg IP BIW, mice dead/group) is reported as 1/7.
On to `N[C@H]1CC[C@H](N[C@@H]2C[C@H]2c2ccccc2)CC1` [Iadademstat], for which the “anti-proliferative EC50, 72 h” value in series [2] (HEL92.1.7, 3 days (72 h) of incubation) was “did not show any measurable anti-proliferative activity”. For the same compound, the “cell growth inhibition reached (plateau)” value in series [2] (HEL92.1.7, 6 days of incubation, up to 10 μM) is on record as 50–60%.
On to `Nc1cccc2c1C(=O)N(C1CCC(=O)NC1=O)C2=O` (stereo not shown) [Pomalidomide, reference compound], for which the tolerability result in series [1] (single agents (Bortezomib 0.5 mg/kg IP BIW; Pomalidomide 2.5 mg/kg PO 5x/week)) is “well tolerated”.
Regarding `O=C(CCCCCCNC(=O)c1cnc(N(c2ccccc2)c2ccccc2)nc1)NO` [Ricolinostat], the EC50 (as a rule, the concentration giving half of the maximal effect) is 4.4 µM in series [2] (HEL 92.1.7, read-out: anti-proliferative EC50, HEL92.1.7, 3 days (72 h) of incubation) and 3.7 µM in series [2] (HEL 92.1.7, Leukemia, 144 h, read-out: EC50, 144hr). The IC50 in series [3] is about 0.05 µM.
